In ChEMBL document CHEMBL3870328, “Synthesis of novel Ral inhibitors: An in vitro and in vivo study” (Bioorg Med Chem Lett, 2016):

Assays:
[1] = Drug metabolism in mouse xenografted with human NCI-H2122 cells assessed as M5 metabolite formation in lungs at 50 mg/kg, ip after 3 hrs by LC-MS/MS analysis; type: ADME, organism-based, Lung; details: in vivo
[2] = Drug metabolism in mouse xenografted with human NCI-H2122 cells assessed as M3 metabolite formation in heart at 50 mg/kg, ip after 3 hrs by LC-MS/MS analysis; type: ADME, organism-based; details: in vivo
[3] = Drug metabolism in mouse xenografted with human NCI-H2122 cells assessed as M1 metabolite formation in lungs at 50 mg/kg, ip after 3 hrs by LC-MS/MS analysis; type: ADME, organism-based, Lung; details: in vivo
[4] = Drug metabolism in mouse xenografted with human NCI-H2122 cells assessed as M3 metabolite formation in tumor at 50 mg/kg, ip after 3 hrs by LC-MS/MS analysis; type: ADME, organism-based, Neoplasm; details: in vivo
[5] = Drug metabolism in CD1 mouse liver microsomes assessed as CYP450-mediated mono-oxidation by measuring M1 metabolite formation at 16.7 uM after 10 mins in presence of NADPH by LC-MS/MS analysis; type: ADME
[6] = Drug uptake in liver of mouse xenografted with human NCI-H2122 cells at 50 mg/kg, ip after 3 hrs by LC-MS/MS analysis; type: ADME, organism-based; details: read-out: Drug uptake
[7] = Drug metabolism in mouse xenografted with human NCI-H2122 cells assessed as 6-amino-4-(2,5-dihydroxyphenyl)-3-(naphthalen-2-yl)-1,4-dihydropyrano[2,3-c]pyrazole-5-carbonitrile metabolite formation in heart at 50 mg/kg, ip after 3 hrs by LC-MS/MS analysis; type: ADME, organism-based; details: in vivo, BLD = below limit of detection
[8] = Drug metabolism in CD1 mouse liver microsomes assessed as CYP450-mediated mono-oxidation by measuring M3 metabolite formation at 16.7 uM after 10 mins in presence of NADPH by LC-MS/MS analysis; type: ADME
[9] = Drug metabolism in mouse xenografted with human NCI-H2122 cells assessed as 6-amino-4-(2,5-dihydroxyphenyl)-3-(naphthalen-2-yl)-1,4-dihydropyrano[2,3-c]pyrazole-5-carbonitrile metabolite formation in tumor at 50 mg/kg, ip after 3 hrs by LC-MS/MS analysis; type: ADME, organism-based, Neoplasm; details: in vivo
[10] = Drug metabolism in mouse xenografted with human NCI-H2122 cells assessed as 6-amino-4-(2,5-dihydroxyphenyl)-3-(naphthalen-2-yl)-1,4-dihydropyrano[2,3-c]pyrazole-5-carbonitrile metabolite formation in plasma at 50 mg/kg, ip after 3 hrs by LC-MS/MS analysis; type: ADME, organism-based; details: in vivo
[11] = Drug metabolism in mouse xenografted with human NCI-H2122 cells assessed as M4 metabolite formation in heart at 50 mg/kg, ip after 3 hrs by LC-MS/MS analysis; type: ADME, organism-based; details: in vivo
[12] = Drug metabolism in mouse xenografted with human NCI-H2122 cells assessed as M5 metabolite formation in kidney at 50 mg/kg, ip after 3 hrs by LC-MS/MS analysis; type: ADME, organism-based; details: in vivo
[13] = Drug metabolism in mouse xenografted with human NCI-H2122 cells assessed as M5 metabolite formation in liver at 50 mg/kg, ip after 3 hrs by LC-MS/MS analysis; type: ADME, organism-based; details: in vivo
[14] = Drug metabolism in mouse xenografted with human NCI-H2122 cells assessed as M4 metabolite formation in liver at 50 mg/kg, ip after 3 hrs by LC-MS/MS analysis; type: ADME, organism-based; details: in vivo
[15] = Drug uptake in brain of mouse xenografted with human NCI-H2122 cells at 50 mg/kg, ip after 3 hrs by LC-MS/MS analysis; type: ADME, organism-based; details: read-out: Drug uptake
[16] = Drug metabolism in mouse xenografted with human NCI-H2122 cells assessed as M5 metabolite formation in heart at 50 mg/kg, ip after 3 hrs by LC-MS/MS analysis; type: ADME, organism-based; details: in vivo
[17] = Drug metabolism in mouse xenografted with human NCI-H2122 cells assessed as M4 metabolite formation in lungs at 50 mg/kg, ip after 3 hrs by LC-MS/MS analysis; type: ADME, organism-based, Lung; details: in vivo
[18] = Drug metabolism in mouse xenografted with human NCI-H2122 cells assessed as M3 metabolite formation in liver at 50 mg/kg, ip after 3 hrs by LC-MS/MS analysis; type: ADME, organism-based; details: in vivo
[19] = Drug metabolism in mouse xenografted with human NCI-H2122 cells assessed as M4 metabolite formation in tumor at 50 mg/kg, ip after 3 hrs by LC-MS/MS analysis; type: ADME, organism-based, Neoplasm; details: in vivo
[20] = Drug metabolism in CD1 mouse liver microsomes assessed as CYP450-mediated demethylation by measuring M4 metabolite formation at 16.7 uM after 10 mins in presence of NADPH by LC-MS/MS analysis; type: ADME
[21] = Drug metabolism in mouse xenografted with human NCI-H2122 cells assessed as M4 metabolite formation in kidney at 50 mg/kg, ip after 3 hrs by LC-MS/MS analysis; type: ADME, organism-based; details: in vivo
[22] = Drug metabolism in mouse xenografted with human NCI-H2122 cells assessed as M1 metabolite formation in tumor at 50 mg/kg, ip after 3 hrs by LC-MS/MS analysis; type: ADME, organism-based, Neoplasm; details: in vivo
[23] = Drug metabolism in mouse xenografted with human NCI-H2122 cells assessed as M1 metabolite formation in heart at 50 mg/kg, ip after 3 hrs by LC-MS/MS analysis; type: ADME, organism-based; details: in vivo
[24] = Drug metabolism in mouse xenografted with human NCI-H2122 cells assessed as M3 metabolite formation in kidney at 50 mg/kg, ip after 3 hrs by LC-MS/MS analysis; type: ADME, organism-based; details: in vivo
[25] = Drug metabolism in mouse xenografted with human NCI-H2122 cells assessed as M5 metabolite formation in tumor at 50 mg/kg, ip after 3 hrs by LC-MS/MS analysis; type: ADME, organism-based, Neoplasm; details: in vivo
[26] = Drug metabolism in mouse xenografted with human NCI-H2122 cells assessed as M1 metabolite formation in liver at 50 mg/kg, ip after 3 hrs by LC-MS/MS analysis; type: ADME, organism-based; details: in vivo
[27] = Drug metabolism in CD1 mouse liver microsomes assessed as CYP450-mediated mono-oxidation by measuring M5 metabolite formation at 16.7 uM after 10 mins in presence of NADPH by LC-MS/MS analysis; type: ADME
[28] = Drug uptake in tumor of mouse xenografted with human NCI-H2122 cells at 50 mg/kg, ip after 3 hrs by LC-MS/MS analysis; type: ADME, organism-based, Neoplasm; details: read-out: Drug uptake
[29] = Drug metabolism in mouse xenografted with human NCI-H2122 cells assessed as M3 metabolite formation in plasma at 50 mg/kg, ip after 3 hrs by LC-MS/MS analysis; type: ADME, organism-based; details: in vivo
[30] = Plasma concentration in mouse xenografted with human NCI-H2122 cells at 50 mg/kg, ip after 3 hrs by LC-MS/MS analysis; type: ADME, organism-based
[31] = Drug metabolism in mouse xenografted with human NCI-H2122 cells assessed as 6-amino-4-(2,5-dihydroxyphenyl)-3-(naphthalen-2-yl)-1,4-dihydropyrano[2,3-c]pyrazole-5-carbonitrile metabolite formation in liver at 50 mg/kg, ip after 3 hrs by LC-MS/MS analysis; type: ADME, organism-based; details: in vivo
[32] = Drug metabolism in mouse xenografted with human NCI-H2122 cells assessed as M1 metabolite formation in kidney at 50 mg/kg, ip after 3 hrs by LC-MS/MS analysis; type: ADME, organism-based; details: in vivo
[33] = Drug metabolism in mouse xenografted with human NCI-H2122 cells assessed as M4 metabolite formation in plasma at 50 mg/kg, ip after 3 hrs by LC-MS/MS analysis; type: ADME, organism-based; details: in vivo

`COc1ccc(OC)c(C2C(C#N)=C(N)Oc3[nH]nc(-c4ccc5ccccc5c4)c32)c1` (stereo not drawn) gave a Drug metabolism [1] of 11.5 ng/g, a Drug metabolism [2] of 1.1 ng/g and a Drug metabolism [3] of 18.2 ng/g. The Drug metabolism [4] was 0.7 ng/g, the Drug metabolism [5] was “Metabolite_Detected” and the concentration at 3 h [6] was 39700 ng/g. The Drug metabolism [7] was “Bld”, the Drug metabolism [8] was “Metabolite_Detected” and the Drug metabolism [9] was 0.6 ng/g. The Drug metabolism [10] was 8.4 ng/mL, the Drug metabolism [11] was 33.5 ng/g and the Drug metabolism [12] was 20.9 ng/g. It also gave a Drug metabolism [13] of 72.6 ng/g, a Drug metabolism [14] of 1391.3 ng/g and a concentration at 3 h [15] of 570 ng/g. It also gave a Drug metabolism [16] of 5.5 ng/g, a Drug metabolism [17] of 46.8 ng/g and a Drug metabolism [18] of 49.6 ng/g. The Drug metabolism [19] was 10.2 ng/g, the Drug metabolism [20] was “Metabolite_Detected” and the Drug metabolism [21] was 260 ng/g. It also gave a Drug metabolism [22] of 7.4 ng/g, a Drug metabolism [23] of 12.4 ng/g and a Drug metabolism [24] of 4.1 ng/g. For the same compound, the Drug metabolism [25] was 1.4 ng/g, the Drug metabolism [26] was 557.4 ng/g and the Drug metabolism [27] was “Metabolite_Detected”. The concentration at 3 h [28] was 5830 ng/g, the Drug metabolism [29] was 14.2 ng/mL and the concentration at 3 h [30] was 3910 ng/mL. For the same compound, the Drug metabolism [31] was 160.8 ng/g, the Drug metabolism [32] was 135.2 ng/g and the Drug metabolism [33] was 37.8 ng/mL.
